# Test results taken from patent US20230382925A1, “MODULATORS OF CYSTIC FIBROSIS TRANSMEMBRANE CONDUCTANCE REGULATOR” (VERTEX PHARMACEUTICALS INCORPORATED, priority 2020, published 2023).
# Molecular target: CFTR (Homo sapiens, UniProt P13569)
# Experiment: Membrane Potential Dye, Enteroid Assay A
# Type: cell-based
# Conditions: for EC50: read-out: Ent. A EC50
# Procedure: Base medium (ADF+++) consisted of Advanced […], 2 mM Glutamax, 10 mM HEPES, 1 μg/mL penicillin/streptomycin.
# Intestinal enteroid maintenance medium (IEMMN) consisted of ADF+++, 1× B27 supplement, 1× N2 supplement, 1.25 mM N-acetyl cysteine, 10 mM Nicotinamide, 50 ng/mL hEGF, 10 nM Gastrin, 1 μg/mL hR-spondin-1, 100 ng/mL hNoggin, TGF-b type 1 inhibitor A-83-01, 100 μg/mL Primocin, 10 μM P38 MAPK inhibitor SB202190.
# Bath 1 Buffer consisted of 1 mM MgCl2, 160 mM NaCl, 4.5 mM KCl, 10 mM HEPES, 10 mM Glucose, 2 mM CaCl2).
# Chloride Free Buffer consisted of 1 mM Magnesium Gluconate, 2 mM Calcium Gluconate, 4.5 mM Potassium Gluconate, 160 mM Sodium Gluconate, 10 mM HEPES, 10 mM Glucose.
# Bath 1 Dye Solution consisted of Bath 1 Buffer, 0.04% Pluronic F127, 20 μM Methyl Oxonol, 30 μM CaCCinh-A01, 30 μM Chicago Sky Blue.
# Chloride Free Dye Solution consisted of Chloride Free Buffer, 0.04% Pluronic F127, 20 μM Methyl Oxonol, 30 μM CaCCinh-A01, 30 μM Chicago Sky Blue.
# Chloride Free Dye Stimulation Solution consisted of Chloride Free Dye Solution, 10 μM forskolin, 100 μM IBMX, and 300 nM Compound III.
# Human intestinal epithelial enteroid cells were obtained from the Hubrecht Institute for Developmental Biology and Stem Cell Research, Utrecht, The Netherlands and expanded in T-Flasks as previously described (Dekkers J F, Wiegerinck C L, de Jonge H R, Bronsveld I, Janssens H M, de Winter-de Groot K M, Brandsma A M, de Jong N W M, Bijvelds M J C, Scholte B J, Nieuwenhuis E E S, van den Brink S, Clevers H, van der Ent C K, Middendorp S and M Beekman J M. A functional CFTR assay using primary cystic fibrosis intestinal organoids. Nat Med. 2013 July; 19(7):939-45.).
# 3. Enteroid Cell Harvesting and Seeding
# Cells were recovered in cell recovery solution, collected by centrifugation at 650 rpm for 5 min at 4° C., resuspended in TrypLE and incubated for 5 min at 37° C. Cells were then collected by centrifugation at 650 rpm for 5 min at 4° C. and resuspended in IEMM containing 10 μM ROCK inhibitor (RI). The cell suspension was passed through a 40 μm cell strainer and resuspended at 1×10^6 cells/mL in IEMM containing 10 μM RI. Cells were seeded at 5000 cells/well into multi-well plates and incubated for overnight at 37° C., 95% humidity and 5% CO2 prior to assay.
# 4. Membrane Potential Dye, Enteroid Assay A
# Enteroid cells were incubated with test compound in IEMM for 18-24 hours at 37° C., 95% humidity and 5% CO2. […] Briefly, cells were washed 5 times in Bath 1 Buffer. Bath 1 Dye Solution was added, and the cells were incubated for 25 min at room temperature. Following dye incubation, cells were washed 3 times in Chloride Free Dye Solution. Chloride transport was initiated by addition of Chloride Free Dye Stimulation Solution and the fluorescence signal was read for 15 min. […] Chloride transport was then expressed as a percentage of the chloride transport following treatment with 3 μM N-[(6-amino-2-pyridyl)sulfonyl]-6-(3-fluoro-5-isobutoxy-phenyl)-2-[(4S)-2,2,4-trimethylpyrrolidin-1-yl]pyridine-3-carboxamide, 3 μM (R)-1-(2,2-difluorobenzo[d][1,3]dioxol-5-yl)-N-(1-(2,3-dihydroxypropyl)-6-fluoro-2-(1-hydroxy-2-methylpropan-2-yl)-1H-indol-5-yl)cyclopropanecarboxamide and 300 nM acute N-[2,4-bis(1,1-dimethylethyl)-5-hydroxyphenyl]-1,4-dihydro-4-oxoquinoline-3-carboxamide triple combination control (% Activity).
# CFTR, sequence (P13569 with tags, fused parts or gaps DEL508-508): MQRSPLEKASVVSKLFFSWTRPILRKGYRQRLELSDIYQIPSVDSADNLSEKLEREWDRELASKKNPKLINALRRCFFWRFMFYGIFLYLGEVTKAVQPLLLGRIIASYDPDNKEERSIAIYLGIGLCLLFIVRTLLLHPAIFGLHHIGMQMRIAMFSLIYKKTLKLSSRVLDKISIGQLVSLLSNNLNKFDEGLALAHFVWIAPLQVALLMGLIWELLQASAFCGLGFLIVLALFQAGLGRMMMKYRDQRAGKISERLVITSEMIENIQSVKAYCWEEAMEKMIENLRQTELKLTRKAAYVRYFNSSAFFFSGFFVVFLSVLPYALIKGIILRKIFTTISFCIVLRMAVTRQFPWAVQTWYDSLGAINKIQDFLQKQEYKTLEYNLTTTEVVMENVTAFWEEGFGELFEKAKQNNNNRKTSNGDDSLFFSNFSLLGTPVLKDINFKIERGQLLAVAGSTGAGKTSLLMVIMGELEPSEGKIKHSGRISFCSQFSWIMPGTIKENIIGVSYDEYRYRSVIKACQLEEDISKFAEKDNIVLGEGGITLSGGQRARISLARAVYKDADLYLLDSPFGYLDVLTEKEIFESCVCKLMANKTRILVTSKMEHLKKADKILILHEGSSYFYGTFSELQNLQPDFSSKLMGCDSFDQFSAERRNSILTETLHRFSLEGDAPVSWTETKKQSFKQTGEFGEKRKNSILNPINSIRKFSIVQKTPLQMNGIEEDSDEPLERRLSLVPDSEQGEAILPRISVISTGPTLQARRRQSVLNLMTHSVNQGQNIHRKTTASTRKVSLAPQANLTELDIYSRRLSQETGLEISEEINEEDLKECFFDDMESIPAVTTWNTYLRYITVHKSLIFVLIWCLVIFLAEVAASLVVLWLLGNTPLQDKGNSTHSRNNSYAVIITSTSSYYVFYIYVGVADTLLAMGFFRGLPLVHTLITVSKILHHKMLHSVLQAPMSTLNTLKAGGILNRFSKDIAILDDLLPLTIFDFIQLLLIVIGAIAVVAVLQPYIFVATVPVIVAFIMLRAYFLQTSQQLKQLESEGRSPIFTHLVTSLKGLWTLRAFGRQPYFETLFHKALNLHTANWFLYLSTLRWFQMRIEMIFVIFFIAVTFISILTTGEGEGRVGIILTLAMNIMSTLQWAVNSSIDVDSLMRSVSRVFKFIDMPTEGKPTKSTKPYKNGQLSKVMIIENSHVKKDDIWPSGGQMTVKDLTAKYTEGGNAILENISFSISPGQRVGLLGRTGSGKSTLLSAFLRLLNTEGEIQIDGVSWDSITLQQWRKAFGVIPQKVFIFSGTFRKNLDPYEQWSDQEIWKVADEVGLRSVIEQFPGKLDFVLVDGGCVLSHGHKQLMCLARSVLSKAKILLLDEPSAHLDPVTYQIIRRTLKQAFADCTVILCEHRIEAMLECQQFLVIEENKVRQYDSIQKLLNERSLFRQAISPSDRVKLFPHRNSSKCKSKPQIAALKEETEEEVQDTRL
SMILES,Ent. A Max Activity (%),EC50 [µM]
CNC(=O)[C@H]1CC2(C1)C[C@H](N1C(=O)c3cccc(c3)S(=O)(=O)Nc3nc(cc(-c4c(C)cccc4C)n3)OC[C@H]1CC(C)C)C2 (stereo in doubt) [Compound 347],+++ (+++ is >60%),< 1
Cc1cccc(C)c1-c1cc2nc(n1)NS(=O)(=O)c1cccc(c1)C(=O)N(C1CC3(CC3)C1)[C@@H](CC1(C(F)(F)F)CC1)CO2 [Compound 351],+ (+ is <300%),< 1
COC(=O)N1CCC2(CC(N3C(=O)c4cccc(c4)S(=O)(=O)Nc4nc(cc(-c5c(C)cccc5C)n4)OC[C@H]3CC(C)C)C2)C1 (some centres unmarked) [Compound 325],+++ (+++ is >60%),< 1
"COC(=O)N1CCC2(CC1)CC(N1C(=O)c3cccc(c3)S(=O)(=O)Nc3nc(cc(-c4c(C)cccc4C)n3)OC[C@@H]1CC(C)C)C2 [Compound 113, Methyl 2-[(11S)-6-(2,6-dimethylphenyl)-11-isobutyl-2,2,13-trioxo-9-oxa-2λ^6-thia-3,5,12,19-tetrazatricyclo[12.3.1.14,8]nonadeca-1(18),4(19),5,7,14,16-hexaen-12-yl]-7-azaspiro[3.5]nonane-7-carboxylate]",++ (++ is 30-60%),< 1
CC(C)C[C@@H]1COc2cc(-c3ccccc3-c3ccccc3)nc(n2)NS(=O)(=O)c2cccc(c2)C(=O)N1C1CC2(CCN(C)CC2)C1 [Compound 471],+++ (+++ is >60%),< 1
"CC(C)C[C@@H]1COc2cc(-c3ccccc3C(C)C)nc(n2)NS(=O)(=O)c2cccc(c2)C(=O)N1C1CC2(CCN(C(=O)OC(C)(C)C)CC2)C1 [Compound 12, tert-Butyl 2-[(11R)-11-isobutyl-6-(2-isopropylphenyl)-2,2,13-trioxo-9-oxa-2λ^6-thia-3,5,12,19-tetrazatricyclo[12.3.1.14,8]nonadeca-1(18),4,6,8(19),14,16-hexaen-12-yl]-7-azaspiro[3.5]nonane-7-carboxylate]",++ (++ is 30-60%),< 1
"CC(C)C[C@@H]1COc2cc(-c3ccccc3C(C)C)nc(n2)NS(=O)(=O)c2cccc(c2)C(=O)N1C1CC2(CCN(C)CC2)C1 [Compound 11, (11R)-11-Isobutyl-6-(2-isopropylphenyl)-12-(7-methyl-7-azaspiro[3.5]nonan-2-yl)-2,2-dioxo-9-oxa-2 λ6-thia-3,5,12,19-tetrazatricyclo[12.3.1.14,8]nonadeca-1(18),4,6,8(19),14,16-hexaen-13-one]",+++ (+++ is >60%),< 1
"Cc1cccc(C)c1-c1cc2nc(n1)NS(=O)(=O)c1cccc(c1)C(=O)N(C1CC3(CCN(C(C)C)CC3)C1)[C@H](CC(C)C)CO2 [Compound 17, (11R)-6-(2,6-Dimethylphenyl)-11-isobutyl-12-(7-isopropyl-7-azaspiro[3.5]nonan-2-yl)-2,2-dioxo-9-oxa-2λ^6-thia-3,5,12,19-tetrazatricyclo[12.3.1.14,8]nonadeca-1(18),4(19),5,7,14,16-hexaen-13-one]",+++ (+++ is >60%),< 1
Cc1cccc(C)c1-c1cc2nc(n1)NS(=O)(=O)c1cccc(c1)C(=O)N(C1CC3(CCN(CCC(C)(C)C)CC3)C1)[C@H](CC(C)C)CO2 [Compound 340],+++ (+++ is >60%),< 1
"Cc1cccc(C)c1-c1cc2nc(n1)NS(=O)(=O)c1cccc(c1)C(=O)N(C1CC(C(=O)O)C1)[C@H](CC(C)C)CO2 (stereo partly drawn) [Compound 35, 3-[(11R)-6-(2,6-dimethylphenyl)-11-isobutyl-2,2,13-trioxo-9-oxa-2λ^6-thia-3,5,12,19-tetrazatricyclo[12.3.1.14,8]nonadeca-1(18),4(19),5,7,14,16-hexaen-12-yl]cyclobutanecarboxylic acid]",+++ (+++ is >60%),3 to 30
CC(C)C[C@@H]1COc2cc(C3CCCCC3(C)C)nc(n2)NS(=O)(=O)c2cccc(c2)C(=O)N1C1CC2(CCNCC2)C1 (some centres unmarked) [Compound 399],+++ (+++ is >60%),< 1

# Results, then the compound that gave them:
Ent. A Max Activity (%),EC50 [µM],SMILES
++ (++ is 30-60%),< 1,"Cc1cccc(C)c1-c1cc2nc(n1)NS(=O)(=O)c1cccc(c1)C(=O)N(C1CCC1)[C@H](CC(C)C)CO2 [Compound 27, (11R)-12-cyclobutyl-6-(2,6-dimethylphenyl)-11-isobutyl-2,2-dioxo-9-oxa-2λ^6-thia-3,5,12,19-tetrazatricyclo[12.3.1.14,8]nonadeca-1(18),4(19),5,7,14,16-hexaen-13-one]"
+++ (+++ is >60%),< 1,Cc1cccc(C)c1-c1cc2nc(n1)NS(=O)(=O)c1cccc(c1)C(=O)N([C@H]1C[C@]3(CCN(C)C3)C1)[C@H](CC(C)C)CO2 [Compound 330]
+++ (+++ is >60%),< 1,"Cc1cccc(C)c1-c1cc2nc(n1)NS(=O)(=O)c1cccc(c1)C(=O)N(C1CC(C(=O)N3CCN(C)CC3)C1)[C@H](CC(C)C)CO2 (stereo partly drawn) [Compound 36, (11R)-6-(2,6-dimethylphenyl)-11-isobutyl-12-[3-(4-methylpiperazine-1-carbonyl)cyclobutyl]-2,2-dioxo-9-oxa-2λ^6-thia-3,5,12,19-tetrazatricyclo[12.3.1.14,8]nonadeca-1(18),4(19),5,7,14,16-hexaen-13-one]"
+++ (+++ is >60%),< 1,"Cc1cccc(C)c1-c1cc2nc(n1)NS(=O)(=O)c1cccc(c1)C(=O)N(C1CC3(CCN(C)CC3)C1)C(CC1(C(F)(F)F)CC1)CO2 (single isomer, unassigned) [Compound 136, 6-(2,6-Dimethylphenyl)-12-(7-methyl-7-azaspiro[3.5]nonan-2-yl)-2,2-dioxo-11-[[1-(trifluoromethyl)cyclopropyl]methyl]-9-oxa-2λ^6-thia-3,5,12,19-tetrazatricyclo[12.3.1.14,8]nonadeca-1(18),4(19),5,7,14,16-hexaen-13-one]"
+++ (+++ is >60%),< 1,Cc1cccc(C)c1-c1cc2nc(n1)NS(=O)(=O)c1cccc(c1)C(=O)N([C@H]1C[C@]3(CCN(C)C3)C1)[C@H](CC(C)C)CO2 (stereo in doubt) [Compound 333]
+++ (+++ is >60%),< 1,Cc1cccc(C)c1-c1cc2nc(n1)NS(=O)(=O)c1cccc(c1)C(=O)N(C1CC3(CC3)C1)C(CC(C)(C)C(F)(F)F)CO2 (centres unmarked) [Compound 216]
+ (+ is <300%),,Cc1cccc(C)c1-c1cc2nc(n1)NS(=O)(=O)c1cccc(c1)C(=O)N(C1CCN(C)CC1)CCO2 [Compound 438]
+++ (+++ is >60%),< 1,"Cc1cccc(C)c1-c1cc2nc(n1)NS(=O)(=O)c1cccc(c1)C(=O)N([C@H]1C[C@@H](O)C1)[C@H](CC(C)C)CO2 (single isomer, unassigned) [Compound 44]"
++ (++ is 30-60%),1 to 3,"Cc1cccc(C)c1-c1cc2nc(n1)NS(=O)(=O)c1cccc(c1)C(=O)N(C1CC3(CC3)C1)C(CC(F)(F)F)CO2 (single isomer, unassigned) [Compound 109, 6-(2,6-Dimethylphenyl)-2,2-dioxo-12-spiro[2.3]hexan-5-yl-11-(2,2,2-trifluoroethyl)-9-oxa-2λ^6-thia-3,5,12,19-tetrazatricyclo[12.3.1.14,8]nonadeca-1(18),4(19),5,7,14,16-hexaen-13-one]"
+++ (+++ is >60%),1 to 3,"Cc1cccc(C)c1-c1cc2nc(n1)NS(=O)(=O)c1cccc(c1)C(=O)N([C@H]1C[C@@H](O)C1)[C@H](CC(C)C)CO2 (single isomer, unassigned) [Compound 43]"
